For the assay, the target named is T1, JAK3 (Homo sapiens, UniProt P52333).
T1 construct: purchased Thermo Fisher Scientific (Life Technologies) SelectScreen
Description: SelectScreen Z'LYTE. Type of assay: biochemical. The essentials: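 NU5455 was profiled across the SelectScreen Broad panel of kinase activity and binding assays. Z'LYTE reactions such as CSF1R ran at apparent Km ATP, while the Adapta CAMK1 assay used ATP listed as 10. Values are given as percent.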

The term inhibition denotes the drop in the measured response relative to a control, in per cent.

T1 sequence (P52333 whole entry): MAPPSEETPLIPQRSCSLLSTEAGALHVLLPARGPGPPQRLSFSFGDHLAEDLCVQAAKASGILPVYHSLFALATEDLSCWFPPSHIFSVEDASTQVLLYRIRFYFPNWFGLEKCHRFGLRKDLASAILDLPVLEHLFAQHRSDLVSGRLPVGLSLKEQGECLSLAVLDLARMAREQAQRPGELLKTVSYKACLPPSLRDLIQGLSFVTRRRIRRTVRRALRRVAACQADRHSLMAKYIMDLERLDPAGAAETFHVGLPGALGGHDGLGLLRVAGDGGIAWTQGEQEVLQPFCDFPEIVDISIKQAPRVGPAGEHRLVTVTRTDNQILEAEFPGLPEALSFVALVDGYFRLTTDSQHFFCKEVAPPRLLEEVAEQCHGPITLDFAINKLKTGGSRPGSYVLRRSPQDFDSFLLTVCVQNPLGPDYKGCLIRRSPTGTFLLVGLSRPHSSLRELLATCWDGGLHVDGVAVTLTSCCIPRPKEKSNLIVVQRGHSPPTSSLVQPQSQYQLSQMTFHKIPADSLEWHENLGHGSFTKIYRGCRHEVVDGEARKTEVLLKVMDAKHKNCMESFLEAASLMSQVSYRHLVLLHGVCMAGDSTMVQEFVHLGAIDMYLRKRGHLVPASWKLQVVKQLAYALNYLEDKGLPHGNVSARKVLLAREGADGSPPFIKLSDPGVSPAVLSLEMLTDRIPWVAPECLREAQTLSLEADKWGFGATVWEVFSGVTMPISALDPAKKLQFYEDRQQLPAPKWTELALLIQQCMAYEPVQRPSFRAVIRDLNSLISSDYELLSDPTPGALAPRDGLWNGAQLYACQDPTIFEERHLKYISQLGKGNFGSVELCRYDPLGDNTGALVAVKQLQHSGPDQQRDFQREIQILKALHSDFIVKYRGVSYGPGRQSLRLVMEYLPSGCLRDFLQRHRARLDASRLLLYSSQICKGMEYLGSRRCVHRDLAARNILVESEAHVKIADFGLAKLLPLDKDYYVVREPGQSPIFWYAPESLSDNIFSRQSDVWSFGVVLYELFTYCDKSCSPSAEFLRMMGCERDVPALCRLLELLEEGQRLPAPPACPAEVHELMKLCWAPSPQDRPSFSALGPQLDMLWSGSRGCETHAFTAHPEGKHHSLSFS

`CN(C(=O)CN1CCOCC1)c1ccc2sc3c(-c4cccc5c(=O)cc(N6CC7CCC(C6)O7)oc45)cccc3c2c1` [NU5455] showed an inhibition at 1 µM of 6%.

These data come from article PMC6934184, “Selective DNA-PKcs inhibition extends the therapeutic index of localized radiotherapy and chemotherapy” (The Journal of Clinical Investigation, 2019).
